System: FAE metabolism
Assay: THL oral gavage: levels of FAEs in jejunum mucosa, lung and plasma
Assay type: in vivo, mouse
Procedure: Adult C57BL/6J male mice were food-deprived for 24 h prior to harvest with ad libitum access to water. To prevent coprophagia, animals were maintained on elevated wire-bottom cages for a 72-hour acclimation period and during the 24-hour food deprivation. One hour prior to harvest, mice received an oral gavage (100 μL of 10 mg/mL) of the DGL inhibitor, THL, in polyethylene glycol (PEG) or PEG alone as control. Jejunum intestinal epithelium and lungs were harvested as described above (see section “Tissue Harvest and Preparation for Enzyme Assays”).
Frozen tissue samples were weighed and homogenized in 1.0 mL of methanol containing the internal standards [^2H5]-2-AG (500 pmol), [^2H4]-AEA (1 pmol), and [^2H4]-OEA (10 pmol). Lipids were extracted using chloroform (2.0 mL) prior to being washed with 1.0 mL 0.2-micron ultra-purified water. Following centrifugation (1,500 × g, 15 min, 4°C), the lower organic phase was collected and dried under N2 steam (99.998% pure). A second chloroform wash (1.0 mL) was then performed followed by another centrifugation (1,500 × g, 15 min, 4°C) and collection of the lower phase. Samples were reconstituted in 2.0 mL of chloroform and purified via open-bed silica gel column chromatography. Columns were washed with a 9:1 chloroform:methanol mixture to elute MAGs and FAEs for collection. Collected eluates were dried under N2 steam (99.998% pure) and resuspended in 0.2 mL of methanol:chloroform (1:1) prior to analysis via UPLC-MS/MS (see section “Quantitation of MAGs and FAEs”).
Data was acquired using equipment described above (see section “UPLC-MS/MS Detection of Analytes”) and using the elution protocol described above (see section “Quantitation of MAG Biosynthetic Enzyme Activity Assay Products”). Cone voltage and collision energy for each analyte are as follows, respectively: AEA = 30 v, 14 v; [^2H4]-AEA = 26 v, 16v; OEA = 28 v, 16 v; [^2H4]-OEA = 48 v, 14 v; DHEA = 30 v, 50 v; 2-AG (20:4) = 30 v, 12 v; [^2H5]-2-AG = 25 v, 44v; 2-DG (22:6) = 34 v, 14 v; 2-PG (16:0) = 18 v, 10 v; 2-OG (18:1) = 42 v, 10 v; 2-LG (18:2) = 30 v, 10 v. MS/MS detection was in positive ion mode and capillary voltage set at 0.1 kV. Extracted ion chromatograms were used to quantify AEA (m/z = 348.3 > 62.0), [^2H4]-AEA (m/z = 352.3 > 66.1), OEA (m/z = 326.4 > 62.1), [^2H4]-OEA (m/z = 330.4 > 66.0), DHEA (m/z = 372.3 > 91.0), 2-AG (m/z = 379.3 > 287.3), [^2H5]-2-AG (m/z = 384.3 > 93.4), 2-DG (m/z = 403.3 > 311.1), 2-PG (m/z = 331.3 > 239.3), 2-OG (m/z = 357.4 > 265.2), and 2-LG (m/z = 355.3 > 263.3). Quantitation occurred using a stable isotope dilution method to detect protonated adducts of the ions [M + H] + in MRM mode. Acyl migration is known to occur in many MAG species following silica-gel purification, therefore the sum of 1-AG and 2-AG, 1-PG and 2-PG, 1-OG and 2-OG, and 1-DG and 2-DG are reported ([Stella et al., 1997]). The established lower limit of quantitation (LLOQ: signal to noise ratio >10) for 2-AG, 2-DG, 2-PG, 2-OG, and 2-LG was 0.5 pmol. The LLOQ for AEA, OEA, and DHEA was 0.008 pmol.

[1] = THL 1 mg oral, 1 h prior to tissue harvest

CCCCCCCCCCC[C@@H](C[C@@H]1OC(=O)[C@H]1CCCCCC)OC(=O)[C@H](CC(C)C)NC=O [THL, tetrahydrolipstatin]
AEA level in jejunum mucosa (THL 1 mg oral gavage 1 h prior to harvest, vehicle 2.85 ± 0.29): 2.41 ± 0.24 pmol/g | AEA level in lung (THL 1 mg oral gavage 1 h prior to harvest, vehicle 3.14 ± 0.14): 2.85 ± 0.08 pmol/g | AEA level in plasma (THL 1 mg oral gavage 1 h prior to harvest, vehicle 3.76 ± 0.07): 3.11 ± 0.50 pmol/mL | DHEA level in plasma (THL 1 mg oral gavage 1 h prior to harvest, vehicle 6.41 ± 0.76): 5.62 ± 0.43 pmol/mL | DHEA level in lung (THL 1 mg oral gavage 1 h prior to harvest, vehicle 14.25 ± 2.18): 16.13 ± 1.19 pmol/g | DHEA level in jejunum mucosa (THL 1 mg oral gavage 1 h prior to harvest, vehicle 14.53 ± 1.25): 18.97 ± 5.08 pmol/g | OEA level in plasma (THL 1 mg oral gavage 1 h prior to harvest, vehicle 41.19 ± 3.84): 36.12 ± 2.36 pmol/mL | OEA level in jejunum mucosa (THL 1 mg oral gavage 1 h prior to harvest, vehicle 52.23 ± 6.73): 46.83 ± 9.00 pmol/g | OEA level in lung (THL 1 mg oral gavage 1 h prior to harvest, vehicle 92.06 ± 4.99): 83.75 ± 3.44 pmol/g | effect on levels of FAEs in jejunum mucosa vs vehicle [1]: no changes | effect on levels of FAEs in lung tissue vs vehicle [1]: no changes | effect on plasma concentrations of FAEs vs vehicle [1]: unaffected
